Earlier results on five molecules are cited in PMC9516332 (Frontiers in Oncology, 2022).

Conditions in all cases: cited from earlier work
In series [1] the target is panel of 255 wild-type kinases (Homo sapiens, UniProt O14578).
Series [2] concerns the target panel of 255 wild-type kinases (Homo sapiens, UniProt P05129).
Series [3] concerns the target panel of 255 wild-type kinases (Homo sapiens, UniProt P07333).
The target of series [4] is T1, panel of 255 wild-type kinases (Homo sapiens, UniProt P54753).
T1 sequence (P54753 34-998): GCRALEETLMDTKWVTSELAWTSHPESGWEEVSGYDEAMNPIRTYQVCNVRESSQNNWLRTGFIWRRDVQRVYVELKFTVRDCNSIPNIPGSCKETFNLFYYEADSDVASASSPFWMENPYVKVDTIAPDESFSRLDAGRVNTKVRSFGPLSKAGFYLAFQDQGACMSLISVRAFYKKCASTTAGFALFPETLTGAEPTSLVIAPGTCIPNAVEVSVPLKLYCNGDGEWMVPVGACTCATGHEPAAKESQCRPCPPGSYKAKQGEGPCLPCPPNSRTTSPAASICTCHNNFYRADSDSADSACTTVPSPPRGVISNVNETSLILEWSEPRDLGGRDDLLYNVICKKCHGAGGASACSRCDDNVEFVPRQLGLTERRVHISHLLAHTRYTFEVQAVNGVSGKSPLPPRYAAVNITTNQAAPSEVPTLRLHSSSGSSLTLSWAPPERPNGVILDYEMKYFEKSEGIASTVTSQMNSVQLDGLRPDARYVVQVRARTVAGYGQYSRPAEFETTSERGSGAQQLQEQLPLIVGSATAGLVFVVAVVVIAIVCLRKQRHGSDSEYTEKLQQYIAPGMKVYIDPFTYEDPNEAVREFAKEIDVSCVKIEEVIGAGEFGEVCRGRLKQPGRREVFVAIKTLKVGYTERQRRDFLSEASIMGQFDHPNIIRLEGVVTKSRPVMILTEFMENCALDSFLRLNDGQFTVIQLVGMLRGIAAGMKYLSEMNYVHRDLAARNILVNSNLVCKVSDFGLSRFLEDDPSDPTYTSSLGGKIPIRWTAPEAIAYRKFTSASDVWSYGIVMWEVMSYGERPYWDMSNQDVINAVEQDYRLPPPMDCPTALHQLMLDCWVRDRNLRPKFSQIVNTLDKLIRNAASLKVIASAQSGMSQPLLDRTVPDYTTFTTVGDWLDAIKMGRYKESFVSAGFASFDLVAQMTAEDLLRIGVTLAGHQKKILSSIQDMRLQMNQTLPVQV

In series [5] the target is panel of 255 wild-type kinases (Homo sapiens, UniProt Q5VT25).
Series [6] deals with panel of 255 wild-type kinases (Homo sapiens, UniProt Q8TDX7).
Series [7] has as its target T2, panel of 255 wild-type kinases (Homo sapiens, UniProt Q96PN8).
T2 sequence (Q96PN8 1-268): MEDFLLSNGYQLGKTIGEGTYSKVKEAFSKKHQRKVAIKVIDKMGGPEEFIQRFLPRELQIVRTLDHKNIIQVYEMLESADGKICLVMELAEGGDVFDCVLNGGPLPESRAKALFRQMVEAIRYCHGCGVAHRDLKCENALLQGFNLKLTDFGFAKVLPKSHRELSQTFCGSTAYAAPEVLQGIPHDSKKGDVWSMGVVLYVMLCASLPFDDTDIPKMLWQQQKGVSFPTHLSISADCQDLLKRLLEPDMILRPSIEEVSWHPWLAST

The target of series [8] is panel of 255 wild-type kinases (Homo sapiens, UniProt Q9NQU5).
Series [9] has as its target T3, panel of 255 wild-type kinases (Homo sapiens, UniProt Q9NRA0).
T3 sequence (Q9NRA0 1-654): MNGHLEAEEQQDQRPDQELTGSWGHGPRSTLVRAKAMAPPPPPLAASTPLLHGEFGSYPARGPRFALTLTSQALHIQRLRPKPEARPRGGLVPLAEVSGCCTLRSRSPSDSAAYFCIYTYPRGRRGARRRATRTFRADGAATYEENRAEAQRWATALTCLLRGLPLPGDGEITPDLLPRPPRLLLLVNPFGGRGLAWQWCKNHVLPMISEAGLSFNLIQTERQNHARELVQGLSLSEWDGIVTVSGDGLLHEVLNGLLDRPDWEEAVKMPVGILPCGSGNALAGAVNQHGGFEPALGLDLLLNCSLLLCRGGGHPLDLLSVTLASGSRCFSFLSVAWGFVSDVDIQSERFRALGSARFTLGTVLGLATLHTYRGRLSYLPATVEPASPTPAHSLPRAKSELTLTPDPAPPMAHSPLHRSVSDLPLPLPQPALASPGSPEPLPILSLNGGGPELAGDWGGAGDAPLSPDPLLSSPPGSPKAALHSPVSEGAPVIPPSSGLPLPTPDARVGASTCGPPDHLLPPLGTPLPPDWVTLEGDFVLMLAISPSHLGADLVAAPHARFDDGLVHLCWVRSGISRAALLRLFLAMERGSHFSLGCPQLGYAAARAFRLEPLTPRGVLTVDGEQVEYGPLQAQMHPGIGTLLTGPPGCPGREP

Series [10] concerns the target panel of 255 wild-type kinases (Homo sapiens, UniProt Q9P286).
Setting [11] is: kinase CRIK, 1 µmol/L single concentration, ref DOI: 10.1158/1535-7163.MCT-18-0877.
The mark [12] stands for this setting: kinase PKCγ, 1 µmol/L single concentration, ref DOI: 10.1158/1535-7163.MCT-18-0877.
The mark [13] stands for this setting: kinase FMS, 1 µmol/L single concentration, ref DOI: 10.1158/1535-7163.MCT-18-0877.
[14] abbreviates: kinase EPHB3, 1 µmol/L single concentration, ref DOI: 10.1158/1535-7163.MCT-18-0877.
Setting [15] is: MRCKα, 1 µmol/L single concentration, ref DOI: 10.1158/1535-7163.MCT-18-0877.
The mark [16] stands for this setting: NEK7, 1 µmol/L single concentration, ref DOI: 10.1158/1535-7163.MCT-18-0877.
Where [17] appears, read: kinase TSSK3, 1 µmol/L single concentration, ref DOI: 10.1158/1535-7163.MCT-18-0877.
Setting [18] is: PAK6, 1 µmol/L single concentration, ref DOI: 10.1158/1535-7163.MCT-18-0877.
Where [19] appears, read: kinase SPHK2, 1 µmol/L single concentration, ref DOI: 10.1158/1535-7163.MCT-18-0877.
Where [20] appears, read: PAK5, 1 µmol/L single concentration, ref DOI: 10.1158/1535-7163.MCT-18-0877.

Read-outs that look alike come from different tables or passages of the source.

As for `CC(C)(C)c1nc(-c2cccc(NS(=O)(=O)c3c(F)cccc3F)c2F)c(-c2ccnc(N)n2)s1` [dabrafenib], in series [1] (kinase CRIK, 1 µmol/L single concentration, ref DOI: 10.1371/journal.pone.0092146), the “%-inhibition at 1 µmol/L, CRIK” value was -2.74%. In addition, the “%-inhibition at 1 µmol/L, PKCγ” value in series [2] (kinase PKCγ, 1 µmol/L single concentration, ref DOI: 10.1371/journal.pone.0092146) is -0.381%. The “%-inhibition at 1 µmol/L, FMS” value in series [3] (kinase FMS, 1 µmol/L single concentration, ref DOI: 10.1371/journal.pone.0092146) is 15%. The “%-inhibition at 1 µmol/L, EPHB3” value in series [4] (kinase EPHB3, 1 µmol/L single concentration, ref DOI: 10.1371/journal.pone.0092146) was 3%. Moreover, the “%-inhibition, MRCKα” value in [5] (MRCKα, 1 µmol/L single concentration, ref DOI: 10.1371/journal.pone.0092146) is on record as -1.84%. Further, the “%-inhibition, NEK7” value in [6] (NEK7, 1 µmol/L single concentration, ref DOI: 10.1371/journal.pone.0092146) was 2.28%. Further, in series [7] (kinase TSSK3, 1 µmol/L single concentration, ref DOI: 10.1371/journal.pone.0092146), the “%-inhibition at 1 µmol/L, TSSK3” value is -8%. The “%-inhibition, PAK6” value in series [8] (PAK6, 1 µmol/L single concentration, ref DOI: 10.1371/journal.pone.0092146) is given as 9%. The “%-inhibition at 1 µmol/L, SPHK2” value in series [9] (kinase SPHK2, 1 µmol/L single concentration, ref DOI: 10.1371/journal.pone.0092146) is recorded as -14%. Besides, the “%-inhibition, PAK5” value in [10] (PAK5, 1 µmol/L single concentration, ref DOI: 10.1371/journal.pone.0092146) is reported as 21%.
Take `CO[C@@H]1[C@H](N(C)C(=O)c2ccccc2)C[C@H]2O[C@]1(C)n1c3ccccc3c3c4c(c5c6ccccc6n2c5c31)C(=O)NC4` [midostaurin]: the “%-inhibition at 1 µmol/L, CRIK” value in series [1] (setting [11]) was 1.32%. In [2] (setting [12]), the “%-inhibition at 1 µmol/L, PKCγ” value was 91%. Further, in series [3] (setting [13]), the “%-inhibition at 1 µmol/L, FMS” value is on record as 95%. For the same molecule, in [4] (setting [14]), the “%-inhibition at 1 µmol/L, EPHB3” value is given as 1.53%. In addition, the “%-inhibition, MRCKα” value in series [5] (setting [15]) is 14%. Besides, the “%-inhibition, NEK7” value in [6] (setting [16]) is given as -11%. In addition, in series [7] (setting [17]), the “%-inhibition at 1 µmol/L, TSSK3” value was -2.3%. In addition, in series [8] (setting [18]), the “%-inhibition, PAK6” value was 52%. For the same molecule, in series [9] (setting [19]), the “%-inhibition at 1 µmol/L, SPHK2” value is listed as 12%. For the same molecule, the “%-inhibition, PAK5” value in series [10] (setting [20]) is listed as 37%.
`CC#CC(=O)N1CCC[C@H]1c1nc(-c2ccc(C(=O)Nc3ccccn3)cc2)c2c(N)nccn12` [acalabrutinib]: the “%-inhibition at 1 µmol/L, CRIK” value in series [1] (setting [11]) was -5%. Moreover, in series [2] (setting [12]), the “%-inhibition at 1 µmol/L, PKCγ” value is given as -7.43%. The “%-inhibition at 1 µmol/L, FMS” value in [3] (setting [13]) is 8%. For the same molecule, in series [4] (setting [14]), the “%-inhibition at 1 µmol/L, EPHB3” value is given as 1.64%. Moreover, the “%-inhibition, MRCKα” value in [5] (setting [15]) is -7.47%. Also, the “%-inhibition, NEK7” value in [6] (setting [16]) is listed as -11%. The “%-inhibition at 1 µmol/L, TSSK3” value in series [7] (setting [17]) is reported as -8%. The “%-inhibition, PAK6” value in series [8] (setting [18]) was -9%. The “%-inhibition at 1 µmol/L, SPHK2” value in [9] (setting [19]) is listed as 7%. The “%-inhibition, PAK5” value in series [10] (setting [20]) is given as -0.37%.
Take `CCc1cc2c(cc1N1CCC(N3CCOCC3)CC1)C(C)(C)c1[nH]c3cc(C#N)ccc3c1C2=O` [alectinib]: the “%-inhibition at 1 µmol/L, CRIK” value in series [1] (setting [11]) is given as 2.31%. In addition, the “%-inhibition at 1 µmol/L, PKCγ” value in series [2] (setting [12]) was 0.135%. The “%-inhibition at 1 µmol/L, FMS” value in series [3] (setting [13]) is on record as 19%. Besides, the “%-inhibition at 1 µmol/L, EPHB3” value in series [4] (setting [14]) was 2%. The “%-inhibition, MRCKα” value in series [5] (setting [15]) is reported as -0.84%. Besides, the “%-inhibition, NEK7” value in series [6] (setting [16]) is recorded as -1.33%. Moreover, in series [7] (setting [17]), the “%-inhibition at 1 µmol/L, TSSK3” value is listed as -3.58%. Moreover, the “%-inhibition, PAK6” value in series [8] (setting [18]) was -8%. The “%-inhibition at 1 µmol/L, SPHK2” value in series [9] (setting [19]) is 1.74%. The “%-inhibition, PAK5” value in series [10] (setting [20]) is 8%.
For `COc1cc(N2CCC(N3CCN(C)CC3)CC2)ccc1Nc1ncc(Cl)c(Nc2ccccc2P(C)(C)=O)n1` [brigatinib], the “%-inhibition at 1 µmol/L, CRIK” value in series [1] is listed as 3.33%. In addition, the “%-inhibition at 1 µmol/L, PKCγ” value in [2] is 11%. Moreover, the “%-inhibition at 1 µmol/L, FMS” value in [3] is 100%. Also, in [4], the “%-inhibition at 1 µmol/L, EPHB3” value is recorded as 0.727%. Further, in series [5], the “%-inhibition, MRCKα” value is recorded as 18%. Moreover, the “%-inhibition, NEK7” value in series [6] is reported as 1.23%. Moreover, in series [7], the “%-inhibition at 1 µmol/L, TSSK3” value was 3%. The “%-inhibition, PAK6” value in [8] is on record as 26%. Moreover, the “%-inhibition at 1 µmol/L, SPHK2” value in [9] was 11%. In addition, in series [10], the “%-inhibition, PAK5” value is 82%.
